Source: patent publication US6541503B2, “Substituted oxindole derivatives as protein tyrosine kinase and as protein serine/threonine kinase inhibitors” (SmithKline Beecham Corporation, priority 1997, dated 2003)

Test system: HDF normal diploid fibroblast cells
Test: FACS assay (cell death by flow cytometry), HDF
Type: cell-based, human
Conditions: Homo sapiens, Fibroblast, 72 h, read-out: FACS HDF IC50
Method: These assays allow determination of both cell death and changes in cell cycle profile in cells following treatment of the compound. The assay is performend as follows:
1. Cells are incubated in DMEM to which 10% FCS has been added in a humidified incubator at 37° C. and 5% by volume of CO2 in air. The cells are innoculated in 6-well plates at a density of 0.5-5×10^5 cells per well.
2. The test compound is added in serial dilutions 24-36 h after plating in 0.5% DMSO. The plates are then incubated a further 72 h in the presence of the compound. During this time, cells in control cultures undergo at least three cell divisions.
3. After incubation, the media is collected and cells are harvested by trypsinization. The cells and media are pooled and pelleted by centrifugation.
4. The cell pellet is fixed in a final volume of 3 mL of 50% ice cold MeOH and incubated for a minimum of 30 min at −20° C.
5. The cells are pelleted by centrifugation and resuspended in 0.5 mL PBS containing 1%FCS, […] Propidium Iodide (PI) and 5 mg/mL RNase A and incubated 30 min at 37° C. in the dark.
6. The samples are analysed by flow cytometry using the relative incorporation of PI as a measure of DNA content of each cell. The % Dead cells is recorded as % of events with less than 2N DNA.
HDF are normal diploid fibroblast cells. RKO are colon adenocarcinoma cells and MES/SA are […].

O=C1Nc2ccc3ncsc3c2C1=CNc1ccc(S(=O)(=O)Nc2ccccn2)cc1 [Example 72, 4-[(7-Oxo-6,7-dihydro-1-thia-3,6-diaza-as-indacen-8-ylidenemethyl)-amino]-N-pyridin-2-yl-benzenesulfonamide]
IC50: > 5 µM
